Where no end group is shown, it is not given here.
Legend:
[1] = tested on: yME-961 strain yeast cells; test: Sister chromatid cohesion GFP dot assay; assay type: cell-based; conditions: peptide 1 h at G1, release, G2/M arrest
Experimental: Figure 4 CIP3 inhibits sister chromatid cohesion and chromosome condensation (A) Flowchart outlining the sister chromatid cohesion assay. (B) yME-961 strain cells were grown and treated with peptides, as shown in A. Premature sister chromatid separation was determined by counting the number of cells showing two GFP dots. At least 300 cells were counted in 3 independent experiments. ∗∗p < 0.001. (C) Cells were grown to mid-log phase. The culture was divided into two flasks, one being treated with CIP3-TAT. Condensation was determined in cells at the G2/M phase by 2-photon microscopy. ∗∗p < 0.001. (D) yKS-008 strain (Smc3-V5) cells were grown and treated with CIP3-TAT peptide, as shown in A. Cells were processed for ChIP with antibodies against V5.
The potential of CIP3-TAT to inhibit cohesion activity was explored by analyzing sister chromatid cohesion in cells arrested at the G2/M. Inserted in the LYS4 locus were LacO arrays, which bind LacI-GFP. In unperturbed cells arrested at the G2/M phase of the cell cycle, cohesin tethers the sister chromatids visualized under the microscope as a single GFP dot. When cohesin is inactivated, the sister chromatids fall apart and are seen as two distinctive GFP dots. yME-961 strain cells were grown to mid-log phase and arrested at the G1 phase of the cell cycle. […]

[2] = tested on: yME-961 strain yeast cells; test: Cell cycle stage by flow cytometry; assay type: cell-based; conditions: peptide 1 h at G1, release to G2/M arrest
Experimental: The potential of CIP3-TAT to inhibit cohesion activity was explored by analyzing sister chromatid cohesion in cells arrested at the G2/M. Inserted in the LYS4 locus were LacO arrays, which bind LacI-GFP. In unperturbed cells arrested at the G2/M phase of the cell cycle, cohesin tethers the sister chromatids visualized under the microscope as a single GFP dot. When cohesin is inactivated, the sister chromatids fall apart and are seen as two distinctive GFP dots. yME-961 strain cells were grown to mid-log phase and arrested at the G1 phase of the cell cycle. Cells were divided into three samples, of which two were supplemented with TAT peptide alone or CIP3-TAT for 1 h. Then, the cells were released into the cell cycle until their rearrest at the G2/M phase. Cells were processed for cohesion assay (Figure 4A).
Supplementary Figure S3. Binding of CIP3-TAT to cohesin by microscale thermophoresis, Related to Figure 3. 10 µM CIP3-TAT was added to protein extracts from strain yAM-945 (Smc3-GFP). The formation of the CIP3-TAT and cohesin complex was analyzed by MST in binding mode. A. MST trace. […]
3. […] The purified proteins were analyzed on gel, followed by coomassie staining. […]
Supplementary Figure S5. […] The entry of the peptide into the cells was analyzed by epifluorescence microscopy.
Supplementary Figure S6. […] The cell cycle stage of the cells, described in Fig. 4B, was determined by flow cytometry. […]

In the case of KRFKDMEYLSGGEKTGGYGRKKRRQRRR [CIP3-TAT], the “sister chromatid cohesion level” value [1] is reported as “precocious separation of the sister chromatids”, the “cells with precocious separation of sister chromatids (two GFP dots)” value ([1]; LacO at LYS4, at least 300 cells in 3 independent experiments) is reported as “approximately 80%” and the “cell cycle delay” value [2] is reported as “No cell cycle delays”.
